According to PubChem BioAssay (NCI):
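At the GI50, growth is halved. TGI denotes the concentration required for complete inhibition of growth.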

Columns and labels:
Experiment in all cases: growth of human tumour cells (NCI), 384-well format
[1] = tested on: A498 renal
[2] = tested on: SW-620 colon
[3] = tested on: UO-31 renal
[4] = tested on: SN12C renal
[5] = tested on: TK-10 renal
[6] = tested on: HS 578T breast
[7] = tested on: MDA-MB-231 breast
[8] = tested on: T-47D breast
[9] = tested on: KM12 colon
[10] = tested on: NCI-H322M lung
[11] = tested on: RPMI-8226 leukemia
[12] = tested on: SNB-19 CNS
[13] = tested on: HCT-15 colon
[14] = tested on: MOLT-4 leukemia
[15] = tested on: IGROV1 ovarian
[16] = tested on: NCI-H522 lung
[17] = tested on: SK-OV-3 ovarian
[18] = tested on: BT-549 breast
[19] = tested on: NCI/ADR-RES ovarian
[20] = tested on: COLO 205 colon
[21] = tested on: M14 melanoma
[22] = tested on: SF-268 CNS
[23] = tested on: NCI-H226 lung
[24] = tested on: RXF 393 renal
[25] = tested on: MCF7 breast
[26] = tested on: LOX IMVI melanoma
[27] = tested on: OVCAR-8 ovarian
[28] = tested on: EKVX NSCLC
[29] = tested on: MALME-3M melanoma
[30] = tested on: HCT-116 colon
[31] = tested on: SR leukemia
[32] = tested on: HL-60(TB) leukemia
[33] = tested on: A549 NSCLC
[34] = tested on: NCI-H23 lung
[35] = tested on: HOP-62 NSCLC
[36] = tested on: DU-145 prostate
[37] = tested on: 786-0 renal
[38] = tested on: NCI-H460 NSCLC
[39] = tested on: SK-MEL-5 melanoma
[40] = tested on: OVCAR-3 ovarian
[41] = tested on: SK-MEL-28 melanoma
[42] = tested on: MDA-MB-435 melanoma
[43] = tested on: UACC-257 melanoma
[44] = tested on: PC-3 prostate
[45] = tested on: ACHN renal
[46] = tested on: HCC-2998 colon
[47] = tested on: MDA-MB-468 breast
[48] = tested on: SNB-75 CNS
[49] = tested on: OVCAR-4 ovarian
[50] = tested on: UACC-62 melanoma
[51] = tested on: CAKI-1 renal
[52] = tested on: U251 glioblastoma
[53] = tested on: SF-295 CNS

Work on `Cc1ccc(Nc2nccc(N(C)c3ccc4c(C)n(C)nc4c3)n2)cc1S(N)(=O)=O` yielded a GI50 [1] of 6.05 µM, a TGI [1] of 90.9 µM and a GI50 [2] greater than 100 µM. For the same compound, the TGI [2] was greater than 100 µM, the GI50 [3] was 8.29 µM and the TGI [3] was greater than 100 µM. It also gave a GI50 [4] of 7.86 µM, a TGI [4] greater than 100 µM and a GI50 [5] of 31.6 µM. It also gave a TGI [5] greater than 100 µM, a GI50 [6] of 2.3 µM and a TGI [6] of 7.68 µM. For the same compound, the GI50 [7] was 5.54 µM, the TGI [7] was greater than 100 µM and the GI50 [8] was 2.52 µM. It also gave a TGI [8] of 11.4 µM, a GI50 [9] of 7 µM and a TGI [9] greater than 100 µM. For the same compound, the GI50 [10] was 7.64 µM, the TGI [10] was 45.5 µM and the GI50 [11] was 3.57 µM. For the same compound, the TGI [11] was 11.5 µM, the GI50 [12] was greater than 100 µM and the TGI [12] was greater than 100 µM. For the same compound, the GI50 [13] was 4.4 µM, the TGI [13] was 37.8 µM and the GI50 [14] was 2.36 µM. For the same compound, the TGI [14] was 6.45 µM, the GI50 [15] was 5.68 µM and the TGI [15] was greater than 100 µM. For the same compound, the GI50 [16] was 6.73 µM, the TGI [16] was 99.3 µM and the GI50 [17] was 6.47 µM. It also gave a TGI [17] greater than 100 µM, a GI50 [18] of 1.61 µM and a TGI [18] of 16.6 µM. It also gave a GI50 [19] of 30.5 µM, a TGI [19] of 93.6 µM and a GI50 [20] of 14 µM. It also gave a TGI [20] greater than 100 µM, a GI50 [21] of 8.19 µM and a TGI [21] of 52.9 µM. The GI50 [22] was 12.6 µM, the TGI [22] was greater than 100 µM and the GI50 [23] was 1.99 µM. For the same compound, the TGI [23] was 13.3 µM, the GI50 [24] was 0.485 µM and the TGI [24] was 3.04 µM. It also gave a GI50 [25] of 7.41 µM, a TGI [25] greater than 100 µM and a GI50 [26] of 3.62 µM. The TGI [26] was 40.4 µM, the GI50 [27] was 8.01 µM and the TGI [27] was 61.3 µM. For the same compound, the GI50 [28] was 14.3 µM, the TGI [28] was greater than 100 µM and the GI50 [29] was 2.73 µM. It also gave a TGI [29] greater than 100 µM, a GI50 [30] of 5.38 µM and a TGI [30] greater than 100 µM. The GI50 [31] was 6.38 µM, the TGI [31] was 12.1 µM and the GI50 [32] was 7.4 µM. For the same compound, the TGI [32] was 18.3 µM, the GI50 [33] was 4.55 µM and the TGI [33] was greater than 100 µM. It also gave a GI50 [34] of 4.79 µM, a TGI [34] of 69.6 µM and a GI50 [35] of 6.28 µM. The TGI [35] was 34.5 µM, the GI50 [36] was 9.34 µM and the TGI [36] was greater than 100 µM. The GI50 [37] was 4.16 µM, the TGI [37] was greater than 100 µM and the GI50 [38] was 5.27 µM. The TGI [38] was greater than 100 µM, the GI50 [39] was 3.03 µM and the TGI [39] was 10.7 µM. For the same compound, the GI50 [40] was 22.6 µM, the TGI [40] was greater than 100 µM and the GI50 [41] was 55.2 µM. For the same compound, the TGI [41] was greater than 100 µM, the GI50 [42] was 78.6 µM and the TGI [42] was greater than 100 µM. For the same compound, the GI50 [43] was 12 µM, the TGI [43] was 62.2 µM and the GI50 [44] was 11.2 µM. For the same compound, the TGI [44] was 70.9 µM, the GI50 [45] was 6.18 µM and the TGI [45] was greater than 100 µM. It also gave a GI50 [46] greater than 100 µM, a TGI [46] greater than 100 µM and a GI50 [47] of 2.97 µM. For the same compound, the TGI [47] was 62.9 µM, the GI50 [48] was 2.51 µM and the TGI [48] was 29 µM. For the same compound, the GI50 [49] was 9.52 µM, the TGI [49] was 35.6 µM and the GI50 [50] was 6.37 µM. It also gave a TGI [50] of 20.8 µM, a GI50 [51] of 3.78 µM and a TGI [51] greater than 100 µM. It also gave a GI50 [52] of 9.87 µM, a TGI [52] greater than 100 µM and a GI50 [53] of 8.89 µM. For the same compound, the TGI [53] was greater than 100 µM.
